Laboratory results: article PMC7542159, “Receptor occupancy of dual glucagon-like peptide 1/glucagon receptor agonist SAR425899 in individuals with type 2 diabetes” (Scientific Reports, 2020)

Key:
[1] = Plasma pharmacokinetics of SAR425899 (LC-MS/MS); settings: human, in vivo, sc, 0.2 mg
Protocol: Blood samples were collected at multiple time points after the last dose on Day 20 for measurement of SAR425899 in plasma using a liquid chromatography with tandem mass spectrometry (LC–MS/MS) method. Peak plasma concentrations (Cmax), time to Cmax (tmax) and area under the plasma concentration versus time curve for the last measurable plasma concentration (AUC0–last) were calculated using noncompartmental methods.

[2] = Liver volume on CT images; format: in vivo, human; settings: for Liver volume change: Fig. 2B
Protocol: Both factors could potentially quantitatively impact the binding of [^68Ga]Ga-DO3A-Tuna-2 in the liver. Thus, the SUV55min at follow-up investigation was proportionally corrected for the decrease in liver volume compared to baseline. Additionally, SUV55min at baseline was corrected to the plasma glucagon value of the individual at follow-up to enable direct comparison between the PET assessments.
Marked weight loss and glucose lowering, as observed in this study, may have rapid and meaningful effects on the hepatic volume in short time periods, due primarily to the depletion of liver glycogen, which in turn bind large amounts of water. A reduction of the liver volume due to decrease in glycogen and water could likely affect the PET data by increasing the hepatocyte density (and in turn the GCGR density) per voxel. The liver volume was therefore assessed on CT images, and the [^68Ga]Ga-DO3A-Tuna-2 liver uptake SUV55min data corrected for the corresponding change in hepatic volume on an individual level. However, this correction may also introduce errors especially since there are inhomogeneities in GCGR expression levels in different parts of the liver (Fig. 3A,C,E). Furthermore, this correction assumes negligible changes on GCGR expression on hepatocytes over time. The occupancy data before the different corrections are therefore reported separately in Fig. 4C,D. Further corrections regarding the potentially non-isotropic GCGR expression could be attempted, but regardless the impact on the occupancy is expected to be low, while potentially introducing noise to the assessment. [^68Ga]Ga-DO3A-Exendin-4 uptake in pancreas is not expected to require correction, as no similar mechanism for rapid volume change is present in pancreas.

human GCGR = molecular target: T1, human GCGR (Homo sapiens, UniProt P47871); assay: In vitro displacement of [^68Ga]Ga-DO3A-Tuna-2 in HEK293 cells overexpressing the human GCGR; format: binding; settings: pre-treatment with 50 µM, three independent experiments
T1 construct: expressed in transfected cells; host or cells: HEK293
Protocol: Figure 5 [^68Ga]Ga-DO3A-Tuna-2 was displaced by SAR525899 in vitro. HEK293 cells overexpressing the human GCGR were incubated with either [^68Ga]Ga-DO3A-Tuna-2 alone, or following pre-treatment with 50 µM SAR525899. Data from three independent repeated experiments. Stars indicate p < 0.001 as assessed by a Students t-test.

GLP1R = settings: higher at GLP1R; cited from earlier work
From the text: Noteworthy, the in vitro binding affinity for SAR425899 at the GLP1R was ~ fivefold higher than at the GCGR. This ratio of binding capacities has been chosen to prevent unwanted glucagon effects like increase of blood glucose. In fact, an increase of blood glucose has not been observed so far in a clinical setting. […] The exposure achieved with this dose in humans, however, might be too low to ...

T1 sequence (P47871 26-477): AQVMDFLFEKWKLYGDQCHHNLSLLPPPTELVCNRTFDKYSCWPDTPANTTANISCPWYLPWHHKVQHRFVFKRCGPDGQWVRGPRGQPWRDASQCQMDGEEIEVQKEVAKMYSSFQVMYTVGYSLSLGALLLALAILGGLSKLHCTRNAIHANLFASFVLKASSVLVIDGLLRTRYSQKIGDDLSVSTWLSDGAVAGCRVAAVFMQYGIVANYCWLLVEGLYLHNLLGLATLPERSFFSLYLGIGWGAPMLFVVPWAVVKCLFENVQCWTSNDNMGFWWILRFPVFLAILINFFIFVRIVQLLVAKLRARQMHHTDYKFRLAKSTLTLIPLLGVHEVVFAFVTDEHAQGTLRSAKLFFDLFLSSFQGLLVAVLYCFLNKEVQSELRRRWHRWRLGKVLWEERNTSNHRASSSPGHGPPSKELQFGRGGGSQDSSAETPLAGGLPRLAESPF

CCCCCCCCCCCCCCCC(=O)N[C@@H](CCC(=O)N[C@@H](CCC(=O)NCCCC[C@H](NC(=O)[C@H](CCC(N)=O)NC(=O)[C@H](CCCCN)NC(=O)[C@H](CO)NC(=O)[C@H](CC(C)C)NC(=O)[C@H](CC(=O)O)NC(=O)[C@H](CO)NC(=O)[C@@H](NC(=O)[C@H](Cc1ccccc1)NC(=O)[C@@H](NC(=O)CNC(=O)[C@H](CCC(N)=O)NC(=O)[C@@H](CO)NC(=O)[C@@H](N)Cc1c[nH]cn1)[C@@H](C)O)[C@@H](C)O)C(=O)N[C@@H](CCC(=O)O)C(=O)N[C@@H](CO)C(=O)N[C@@H](CCCCN)C(=O)N[C@@H](C)C(=O)N[C@@H](C)C(=O)N[C@@H](CCC(N)=O)C(=O)N[C@@H](CC(=O)O)C(=O)N[C@@H](Cc1ccccc1)C(=O)N[C@H](C(=O)N[C@@H](CCC(=O)O)C(=O)N[C@@H](Cc1c[nH]c2ccccc12)C(=O)N[C@@H](CC(C)C)C(=O)N[C@@H](CCCCN)C(=O)N[C@@H](C)C(=O)NCC(=O)NCC(=O)N1CCC[C@H]1C(=O)N[C@@H](CO)C(=O)N[C@@H](CO)C(=O)NCC(=O)N[C@@H](C)C(=O)N1CCC[C@H]1C(=O)N1CCC[C@H]1C(=O)N1CCC[C@H]1C(=O)N[C@@H](CO)C(N)=O)[C@@H](C)CC)C(=O)O)C(=O)O [SAR425899]
AUC(0-t) [1]: 217 ng·h/mL
Cmax [1]: 25.1 ng/mL
Tmax [1]: 7.62 h
Liver volume change ([2]; 0.12mg): -0.8%
Liver volume change ([2]; 0.2mg): -10.4%
decrease in liver volume ([2]; under treatment with SAR425899, average (SD)): 10.4 (6.1) %
liver volume at follow up ([2]; under treatment with SAR425899, mean (SD), baseline 2.14 (0.45) dm^3): 1.91 (0.36) dm^3
displacement of [^68Ga]Ga-DO3A-Tuna-2 (human GCGR; p < 0.001): competes for the same binding site
displacement of [^68Ga]Ga-DO3A-Tuna-2 (human GCGR; p < 0.001, listed as SAR525899): displaced
in vitro binding affinity at the GLP1R relative to the GCGR (GLP1R): ~ fivefold
